Results on 8 molecules are retold here after ChEMBL document CHEMBL4811216, “Chemotherapy for human schistosomiasis: how far have we come? What's new? Where do we go from here?” (RSC Med Chem, 2020).

The test system of data set [1] is Schistosoma mansoni. Nature of the data set: Antischistosomal activity against Schistosoma mansoni infected in NMRI mouse assessed as worm burden reduction at 100 mg/kg, po administered as single dose relative to control. Format: functional. More on the design: scale not given: the % may be the effect or the level left.
The test system of data set [2] is Schistosoma mansoni. Nature of the data set: Antischistosomal activity against Schistosoma mansoni Schistosomula assessed as worm death at 10 uM incubated for 24 hrs relative to control. It counts as functional.
Data set [3] has as its system Schistosoma mansoni. Nature of the data set: Antischistosomal activity against juvenile Schistosoma mansoni assessed as worm death at 10 uM incubated for 120 hrs relative to control. Format: functional.
Data set [4] has as its system Schistosoma mansoni. Nature of the data set: Antischistosomal activity against adult Schistosoma mansoni assessed as worm death at 10 uM incubated for 120 hrs relative to control. Format: functional.
Data set [5] concerns the target T1, Thioredoxin glutathione reductase (Schistosoma mansoni, UniProt Q962Y6).
T1 sequence (Q962Y6 whole entry): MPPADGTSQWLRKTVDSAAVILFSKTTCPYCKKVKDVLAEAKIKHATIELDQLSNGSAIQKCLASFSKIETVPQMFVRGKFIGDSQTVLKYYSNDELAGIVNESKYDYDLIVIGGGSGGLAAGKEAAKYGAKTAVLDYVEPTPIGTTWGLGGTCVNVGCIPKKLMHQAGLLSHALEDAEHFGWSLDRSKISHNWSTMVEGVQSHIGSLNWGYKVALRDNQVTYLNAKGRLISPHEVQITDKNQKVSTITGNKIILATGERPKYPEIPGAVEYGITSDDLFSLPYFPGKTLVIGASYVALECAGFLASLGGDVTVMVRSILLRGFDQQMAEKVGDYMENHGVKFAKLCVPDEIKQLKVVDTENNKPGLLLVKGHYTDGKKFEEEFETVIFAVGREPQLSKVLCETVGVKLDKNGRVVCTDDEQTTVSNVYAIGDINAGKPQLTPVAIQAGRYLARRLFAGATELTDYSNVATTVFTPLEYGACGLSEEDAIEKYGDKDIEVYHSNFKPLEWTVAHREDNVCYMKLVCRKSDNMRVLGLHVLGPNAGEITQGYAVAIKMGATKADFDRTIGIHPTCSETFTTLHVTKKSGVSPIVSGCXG
Put plainly: Inhibition of Schistosoma mansoni thioredoxin glutathione reductase incubated for 30 mins by DTNB assay.

The subject of data set [6] is Schistosoma japonicum. Nature of the data set: Antischistosomal activity against Schistosoma japonicum assessed as worm death at 10 uM incubated for 120 hrs relative to control. The conditions noted are these: Schistosoma japonicum. It counts as functional.
A further data set has as its system Schistosoma haematobium. Nature of the data set: Antischistosomal activity against Schistosoma haematobium assessed as worm death at 10 uM incubated for 120 hrs relative to control. It counts as functional.
Data set [7] concerns the target T2, Histone deacetylase 8 (Schistosoma mansoni, UniProt A5H660).
T2 sequence (A5H660 whole entry): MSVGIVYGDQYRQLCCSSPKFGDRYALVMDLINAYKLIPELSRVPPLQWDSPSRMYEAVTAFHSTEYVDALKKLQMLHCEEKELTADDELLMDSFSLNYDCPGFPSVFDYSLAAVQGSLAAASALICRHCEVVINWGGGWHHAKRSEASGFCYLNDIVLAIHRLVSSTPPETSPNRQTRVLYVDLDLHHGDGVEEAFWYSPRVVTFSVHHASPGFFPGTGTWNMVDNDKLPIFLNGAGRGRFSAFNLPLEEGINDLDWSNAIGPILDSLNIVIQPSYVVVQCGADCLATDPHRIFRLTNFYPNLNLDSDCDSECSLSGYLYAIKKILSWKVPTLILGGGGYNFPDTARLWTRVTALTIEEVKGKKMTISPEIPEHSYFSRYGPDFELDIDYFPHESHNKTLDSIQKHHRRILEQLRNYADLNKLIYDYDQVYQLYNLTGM
Put plainly: Inhibition of Schistosoma mansoni HDAC8 expressed in Escherichia coli using Fluor de Lys as substrate incubated for 90 mins by fluorescence method.

The target in another data set is Histone deacetylase 1 (Homo sapiens, UniProt Q13547). Nature of the data set: Inhibition of human HDAC1 (1 to 482 reidue) expressed in sf9 cells using ZMAL(Cbz-(Ac)Lys-AMC as substrate preincubated for 90 mins followed by trypsin addition and measured after 20 mins by fluorimetric method.
Histone deacetylase 1, sequence (Q13547 whole entry): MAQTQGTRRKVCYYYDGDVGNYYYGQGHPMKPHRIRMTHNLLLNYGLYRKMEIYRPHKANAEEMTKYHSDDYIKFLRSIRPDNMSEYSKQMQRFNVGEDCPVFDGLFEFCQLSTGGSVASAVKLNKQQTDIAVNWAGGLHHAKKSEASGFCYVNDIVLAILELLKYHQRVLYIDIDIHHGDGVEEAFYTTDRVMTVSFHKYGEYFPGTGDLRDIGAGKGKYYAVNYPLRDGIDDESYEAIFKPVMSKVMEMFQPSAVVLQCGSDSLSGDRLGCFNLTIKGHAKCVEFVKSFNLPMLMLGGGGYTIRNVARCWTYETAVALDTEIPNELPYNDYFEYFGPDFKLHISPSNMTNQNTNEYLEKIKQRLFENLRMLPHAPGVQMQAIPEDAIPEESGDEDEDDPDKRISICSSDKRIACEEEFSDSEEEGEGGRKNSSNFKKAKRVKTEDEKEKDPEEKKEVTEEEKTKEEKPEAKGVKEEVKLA
Data set [8] deals with T3, Protein deacetylase HDAC6 (Homo sapiens, UniProt Q9UBN7).
T3 sequence (Q9UBN7 whole entry): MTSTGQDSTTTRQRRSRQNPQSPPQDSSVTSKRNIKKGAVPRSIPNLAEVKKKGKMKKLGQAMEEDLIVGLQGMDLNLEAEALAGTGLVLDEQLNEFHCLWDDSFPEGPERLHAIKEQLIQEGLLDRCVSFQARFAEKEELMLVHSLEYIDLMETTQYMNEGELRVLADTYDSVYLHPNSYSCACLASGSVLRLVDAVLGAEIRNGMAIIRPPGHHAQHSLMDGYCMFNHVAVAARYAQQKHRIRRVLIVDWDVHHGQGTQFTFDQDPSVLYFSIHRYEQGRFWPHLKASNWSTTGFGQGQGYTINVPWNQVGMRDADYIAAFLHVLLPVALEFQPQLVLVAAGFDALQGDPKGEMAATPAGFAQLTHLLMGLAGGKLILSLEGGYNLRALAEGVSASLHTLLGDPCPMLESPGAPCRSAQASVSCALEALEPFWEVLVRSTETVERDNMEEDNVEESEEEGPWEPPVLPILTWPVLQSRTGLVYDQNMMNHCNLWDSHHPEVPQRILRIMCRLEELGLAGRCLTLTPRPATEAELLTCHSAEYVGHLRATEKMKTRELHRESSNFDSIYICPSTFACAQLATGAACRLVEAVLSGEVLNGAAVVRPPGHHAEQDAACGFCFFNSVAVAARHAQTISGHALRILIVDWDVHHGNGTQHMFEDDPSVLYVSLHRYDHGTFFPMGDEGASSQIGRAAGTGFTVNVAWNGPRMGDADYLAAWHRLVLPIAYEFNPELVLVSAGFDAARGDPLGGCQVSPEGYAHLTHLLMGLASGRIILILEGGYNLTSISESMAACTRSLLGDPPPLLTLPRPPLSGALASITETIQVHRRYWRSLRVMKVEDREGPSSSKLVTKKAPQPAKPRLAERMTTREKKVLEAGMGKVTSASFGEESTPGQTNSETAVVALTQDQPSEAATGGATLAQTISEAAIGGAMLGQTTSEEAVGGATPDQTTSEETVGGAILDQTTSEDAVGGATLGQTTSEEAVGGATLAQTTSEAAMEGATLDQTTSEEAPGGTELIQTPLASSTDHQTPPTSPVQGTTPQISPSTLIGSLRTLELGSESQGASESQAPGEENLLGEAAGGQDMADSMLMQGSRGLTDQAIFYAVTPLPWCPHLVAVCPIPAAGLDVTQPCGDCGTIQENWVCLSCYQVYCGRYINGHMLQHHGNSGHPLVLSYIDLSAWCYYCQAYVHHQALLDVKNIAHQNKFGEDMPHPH
Put plainly: Inhibition of human HDAC6 using ZMAL(Cbz-(Ac)Lys-AMC as substrate preincubated for 90 mins followed by trypsin addition and measured after 20 mins by fluorimetric method.

The target of data set [9] is T4, Histone deacetylase 8 (Homo sapiens, UniProt Q9BY41).
T4 sequence (Q9BY41 whole entry): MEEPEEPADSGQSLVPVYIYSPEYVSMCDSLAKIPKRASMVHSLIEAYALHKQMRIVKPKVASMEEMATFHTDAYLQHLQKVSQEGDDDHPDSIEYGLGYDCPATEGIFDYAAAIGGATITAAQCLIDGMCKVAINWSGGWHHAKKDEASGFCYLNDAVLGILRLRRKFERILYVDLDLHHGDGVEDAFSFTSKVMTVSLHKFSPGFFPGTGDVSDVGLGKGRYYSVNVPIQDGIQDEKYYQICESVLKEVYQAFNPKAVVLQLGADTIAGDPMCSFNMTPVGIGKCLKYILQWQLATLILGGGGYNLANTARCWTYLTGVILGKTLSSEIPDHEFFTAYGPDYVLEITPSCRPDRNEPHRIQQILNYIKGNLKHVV
Put plainly: Inhibition of human HDAC8 using Fluor de Lys as substrate incubated for 90 mins by fluorescence method.

The test system of data set [10] is Schistosoma mansoni. Nature of the data set: Schistosomicidal-activity against Schistosoma mansoni schistosomula at 20 uM incubated for 48 hrs by Alamar Blue assay relative to control. It counts as functional. (The colour change of resazurin is a common sign of viable cells or microbes.)
Data set [11] concerns Schistosoma mansoni. Nature of the data set: Schistosomicidal-activity against Schistosoma mansoni schistosomula incubated for 48 hrs by Alamar Blue assay. It counts as functional, organism-based.
Data set [12] has as its system Schistosoma japonicum. Put plainly: Antischistosomal activity against Schistosoma japonicum assessed as worm mortality at 10 ug/ml incubated for 72 hrs by microscopic method relative to control. Format: functional. The conditions noted are these: dose 10 µg/ml.
For data set [13], the system named is Schistosoma japonicum. Nature of the data set: Antischistosomal activity against Schistosoma japonicum infected in ICR mouse assessed as total worm reduction at 250 mg/kg, po administered as single dose relative to control. More on the design: scale not given: the % may be the effect or the level left. It counts as functional.
Data set [14] relates to Schistosoma japonicum. Nature of the data set: Schistosomicidal-activity against adult Schistosoma japonicum at 10 uM incubated for 72 hrs by inverted microscopic method relative to control. Format: functional.
Data set [15] has as its target T4, Histone deacetylase 8. Nature of the data set: Inhibition of human HDAC8 using Fluor de Lys as substrate by fluorimetric method.
Data set [16] has as its target T2, Histone deacetylase 8. Nature of the data set: Inhibition of Schistosoma mansoni HDAC8 using fluorogenic substrate by fluorescence method.
In data set [17] the target is T5, HDAC1 (histone deacetylase 1) (Homo sapiens, UniProt Q13547). Nature of the data set: Inhibition of human HDAC1 at 200 uM using Z-Lys(Ac)-AMC as substrate by fluorimetric method relative to control. Conditions: HDAC1 enzyme, probe Z-Lys(Ac)-AMC.
T5 sequence (Q13547 whole entry): as the sequence (Q13547 whole entry) above
For data set [18], the target named is T3, Protein deacetylase HDAC6. Put plainly: Inhibition of human HDAC6 using Z-Lys(Ac)-AMC as substrate by fluorimetric method.
Data set [19] has as its target T5, HDAC1 (histone deacetylase 1). Put plainly: Inhibition of human HDAC1 using Z-Lys(Ac)-AMC as substrate at 1 uM by fluorimetric method relative to control. Conditions: HDAC1 enzyme, probe Z-Lys(Ac)-AMC.
Data set [20] concerns Schistosoma mansoni. Put plainly: Antischistosomal activity against Schistosoma mansoni LE assessed as worm mortality at 20 uM incubated for 72 hrs by microscopic method relative to control. Format: functional.

Each structure is given as a SMILES string.

Take `CC(C)NCC1CCc2cc(CO)c([N+](=O)[O-])cc2N1` (stereo not drawn) [OXAMNIQUINE]: in the data set on Schistosoma mansoni [1], the Activity is 99.2%.

Usually mortality stands for the percentage killed. Usually IC50 stands for the point on the concentration scale where inhibition reaches its midpoint. Take `COc1ccc([N+](=O)[O-])c(S(=O)(=O)c2ccc(Cl)cc2)n1`: the mortality at 10 µM in the data set with Schistosoma mansoni [2] is 100%; in the data set with Schistosoma mansoni [3], 57%; in the data set with Schistosoma mansoni [4] it was 67%; in the data set on Schistosoma japonicum [6] it was 30%; in the data set with Schistosoma haematobium it was 48%. In data set [5], half-maximal inhibition (IC50) was put at 60 nM.

A word on the EC50: it is the concentration needed to bring the measured effect to its halfway point. Consider `O=C(/C=C/c1ccccc1Sc1ccc(Cl)cc1)NO`, for which the IC50 at Histone deacetylase 8 [7] is 180 nM; at Histone deacetylase 1, 7700 nM; in data set [8], 3200 nM; against Histone deacetylase 8 [9], 180 nM. The molecule also had an Activity in the data set with Schistosoma mansoni [10] of 97%. Further, a half-maximal response with Schistosoma mansoni [11] (EC50) required 11800 nM.

Take `OC(CN1CCCCC1)Cn1c2ccc(Cl)cc2c2cc(Cl)ccc21` (stereo not drawn): in the data set on Schistosoma japonicum [12], the Activity is recorded as 100%.

With `O=C(C1CCCCC1)N1CC(=O)N2CCc3ccccc3C2C1` (stereo not drawn) [PRAZIQUANTEL], the Activity in the data set on Schistosoma japonicum [13] worked out at 62.4%; with Schistosoma japonicum [14], 37.5%.

Broadly, the inhibition is the percentage by which the read-out fell short of the control. Regarding `CN1CCN(NC(=O)c2cccc(C(=O)NO)c2)CC1`, the IC50 came out at 1310 nM against Histone deacetylase 8 [15], 750 nM against Histone deacetylase 8 [16] and 7110 nM in data set [18]. Moreover, the inhibition at 200 µM in [17] is 15.3%. Besides, the inhibition at 1 µM in data set [19] is under 10%.

As for `CN(C)c1ccc(/C=C2\NC(=O)N(Cc3c(F)cccc3Cl)C2=S)cc1`, in the data set on Schistosoma mansoni [20], the Activity came out at 100%.

For the molecule `O=C(/C=C/c1ccccc1Oc1c(Cl)cccc1Cl)NO`, the IC50 against Histone deacetylase 8 [7] was found to be 440 nM; against Histone deacetylase 1, 20200 nM; in data set [8], 8200 nM; at Histone deacetylase 8 [9] it was 470 nM. In the data set with Schistosoma mansoni [10], this molecule registered an Activity of 89%. The molecule also displayed an EC50 in the data set with Schistosoma mansoni [11] of 6500 nM.
